Experiment [1] concerns the target Tyrosine-protein kinase Lck (Homo sapiens, UniProt P06239). The experiment can be described thus: Inhibition of p56 lck tyrosine kinase.
Experiment [2] addresses Epidermal growth factor receptor (Homo sapiens, UniProt P00533). The experiment can be described thus: Inhibition of Epidermal growth factor receptor.

Chain of Epidermal growth factor receptor (P00533 whole entry): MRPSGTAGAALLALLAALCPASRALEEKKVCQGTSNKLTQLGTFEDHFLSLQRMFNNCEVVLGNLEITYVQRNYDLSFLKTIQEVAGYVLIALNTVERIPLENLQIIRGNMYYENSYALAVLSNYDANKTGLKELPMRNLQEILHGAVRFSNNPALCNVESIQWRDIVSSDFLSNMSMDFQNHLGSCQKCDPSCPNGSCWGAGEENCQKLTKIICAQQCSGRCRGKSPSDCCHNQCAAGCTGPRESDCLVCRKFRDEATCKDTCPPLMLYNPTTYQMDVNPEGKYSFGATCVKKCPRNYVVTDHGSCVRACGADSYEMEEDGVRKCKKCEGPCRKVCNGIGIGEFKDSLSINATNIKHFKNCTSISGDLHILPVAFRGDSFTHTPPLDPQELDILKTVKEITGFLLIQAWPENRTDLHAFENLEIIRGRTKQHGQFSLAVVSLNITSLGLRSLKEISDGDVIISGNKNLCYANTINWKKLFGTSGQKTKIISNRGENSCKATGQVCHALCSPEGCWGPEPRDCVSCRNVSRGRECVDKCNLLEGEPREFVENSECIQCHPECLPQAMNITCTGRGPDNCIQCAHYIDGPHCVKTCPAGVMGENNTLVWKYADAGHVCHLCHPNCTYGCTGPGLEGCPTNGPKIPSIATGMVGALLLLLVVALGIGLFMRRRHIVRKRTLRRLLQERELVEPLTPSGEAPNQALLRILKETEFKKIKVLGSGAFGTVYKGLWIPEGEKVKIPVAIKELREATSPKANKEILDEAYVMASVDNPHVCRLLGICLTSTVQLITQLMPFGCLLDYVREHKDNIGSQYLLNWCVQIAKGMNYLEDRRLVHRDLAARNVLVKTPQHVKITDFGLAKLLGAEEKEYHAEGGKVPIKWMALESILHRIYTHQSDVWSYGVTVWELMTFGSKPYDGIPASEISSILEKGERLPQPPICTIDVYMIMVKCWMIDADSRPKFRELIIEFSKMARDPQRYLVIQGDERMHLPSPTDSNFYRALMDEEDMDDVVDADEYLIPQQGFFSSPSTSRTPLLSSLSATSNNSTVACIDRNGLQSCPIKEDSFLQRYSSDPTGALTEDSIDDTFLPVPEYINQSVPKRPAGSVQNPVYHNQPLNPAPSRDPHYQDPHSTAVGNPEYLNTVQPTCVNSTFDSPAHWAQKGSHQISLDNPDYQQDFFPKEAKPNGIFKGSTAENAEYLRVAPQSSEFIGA
Chain of Tyrosine-protein kinase Lck (P06239 whole entry): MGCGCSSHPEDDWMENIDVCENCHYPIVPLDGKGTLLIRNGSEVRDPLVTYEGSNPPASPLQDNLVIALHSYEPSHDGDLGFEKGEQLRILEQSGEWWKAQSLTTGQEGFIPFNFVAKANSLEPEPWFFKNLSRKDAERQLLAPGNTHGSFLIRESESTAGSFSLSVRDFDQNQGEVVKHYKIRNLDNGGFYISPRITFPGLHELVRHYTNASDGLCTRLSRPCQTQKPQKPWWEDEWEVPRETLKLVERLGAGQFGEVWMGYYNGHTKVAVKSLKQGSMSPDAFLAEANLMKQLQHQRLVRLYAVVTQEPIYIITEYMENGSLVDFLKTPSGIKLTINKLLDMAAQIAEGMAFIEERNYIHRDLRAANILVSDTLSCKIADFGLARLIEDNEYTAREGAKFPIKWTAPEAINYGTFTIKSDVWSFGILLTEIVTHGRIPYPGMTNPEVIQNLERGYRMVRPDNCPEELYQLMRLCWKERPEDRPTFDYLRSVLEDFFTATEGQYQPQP

The term IC50 denotes the point on the concentration scale where inhibition reaches its midpoint. Low readings indicate greater potency in that assay, high ones weaker potency in that assay. For the compound `N#C/C(=C\c1ccc(O)c(O)c1)C(N)=O`, the IC50 was 7 µM in experiment [1] and 4 µM in experiment [2].

Consider `O=CN/C=C/c1ccc(O)c(O)c1`, for which the IC50 in experiment [2] worked out at 7 µM.

For the compound `N#C/C(=C\c1cc(O)ccc1O)C(N)=O`, the IC50 in experiment [1] amounted to 100 µM; in experiment [2], 10 µM.

Take `O=CN/C=C/c1cc(O)ccc1O` [ERBSTATIN]: the IC50 in experiment [2] is 3 µM.
